Experimental data from ChEMBL document CHEMBL1201862, “PubChem BioAssay data set” (2004).
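Cells were grown in 96-well plates and exposed to each compound for 48 hours at five concentrations; endpoints were interpolated linearly between bracketing concentrations, or set to the highest concentration if not reached. Here, GI50 denotes the concentration required for 50% inhibition of growth.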 Activity calls are given as the source filed them. Cut-off read from the data, not from the text of the source: active = GI50 up to about 1.1 µM and inactive = higher.

Columns and labels:
Assay in all cases: NCI-60 cell line screen, 48 h
[1] = test system: NCI-H23
[2] = test system: NCI-H460
[3] = test system: SF-295
[4] = test system: HOP-62
[5] = test system: MDA-MB-435
[6] = test system: MOLT-4
[7] = test system: SNB-75
[8] = test system: OVCAR-5
[9] = test system: NCI/ADR-RES
[10] = test system: CAKI-1
[11] = test system: CCRF-CEM
[12] = test system: ACHN
[13] = test system: OVCAR-8
[14] = test system: MDA-MB-231
[15] = test system: COLO 205
[16] = test system: NCI-H226
[17] = test system: Hs-578T
[18] = test system: U-251
[19] = test system: UO-31
[20] = test system: Malme-3M

COC(=O)C(CCC1C=CCC1)/N=C\c1ccccc1 (stereo unspecified)
GI50 [1]: 52.6 µM (inactive)
GI50 [2]: 44 µM (inactive)
GI50 [3]: 57.7 µM (inactive)
GI50 [4]: 68.5 µM (inactive)
GI50 [5]: 60.3 µM (inactive)
GI50 [6]: 33.8 µM (inactive)
GI50 [7]: 93.3 µM (inactive)
GI50 [8]: > 100 µM (inactive)
GI50 [9]: 26.9 µM (inactive)
GI50 [10]: 50.2 µM (inactive)
GI50 [11]: 56 µM (inactive)
GI50 [12]: 73.5 µM (inactive)
GI50 [13]: 68.2 µM (inactive)
GI50 [14]: 68.9 µM (inactive)
GI50 [15]: 48.8 µM (inactive)
GI50 [16]: 56.8 µM (inactive)
GI50 [17]: > 100 µM (inactive)
GI50 [18]: 52.1 µM (inactive)
GI50 [19]: 51.9 µM (inactive)

COc1ccc2nc3cc(Cl)ccc3c(NCCCN(Cc3cc(OC)c(OC)c(OC)c3)Cc3cc(OC)c(OC)c(OC)c3)c2c1
GI50 [1]: > 10 µM (inactive)
GI50 [2]: 6.84 µM (inactive)
GI50 [3]: 3.33 µM (inactive)
GI50 [4]: 4.65 µM (inactive)
GI50 [20]: 17.7 µM (inactive)
GI50 [5]: > 10 µM (inactive)
GI50 [6]: 1.34 µM (inactive)
GI50 [8]: 13.3 µM (inactive)
GI50 [9]: 23.4 µM (inactive)
GI50 [10]: 14.4 µM (inactive)
GI50 [12]: 11.7 µM (inactive)
GI50 [13]: 12.1 µM (inactive)
GI50 [14]: < 0.01 µM (active)
GI50 [15]: 4.3 µM (inactive)
GI50 [16]: 14 µM (inactive)
GI50 [17]: 8.55 µM (inactive)
GI50 [18]: 4.32 µM (inactive)
GI50 [19]: 10.6 µM (inactive)

CC1OC(O[C@H]2CC[C@]3(C)[C@H]4CC=C5[C@@H]6[C@@H](C)[C@H](C)CC[C@]6(C(=O)O)CC[C@@]5(C(=O)O)[C@]4(C)CC[C@H]3C2(C)C)C(O)C(O)C1O (stereo partly specified)
GI50 [1]: > 75 µM (inactive)
GI50 [2]: 50.1 µM (inactive)
GI50 [3]: > 75 µM (inactive)
GI50 [4]: > 75 µM (inactive)
GI50 [5]: > 75 µM (inactive)
GI50 [6]: > 75 µM (inactive)
GI50 [7]: > 75 µM (inactive)
GI50 [8]: > 75 µM (inactive)
GI50 [9]: > 75 µM (inactive)
GI50 [10]: > 75 µM (inactive)
GI50 [11]: 28.8 µM (inactive)
GI50 [12]: > 75 µM (inactive)
GI50 [13]: > 75 µM (inactive)
GI50 [14]: > 75 µM (inactive)
GI50 [15]: > 75 µM (inactive)
GI50 [17]: > 75 µM (inactive)
GI50 [18]: > 75 µM (inactive)
GI50 [19]: > 75 µM (inactive)

CC(C)CCCC(C)[C@H]1CCC2[C@@H]3CCC4Cc5nc6c(nc5C[C@]4(C)C3CC[C@@]21C)CC1CC[C@@H]2C(C[C@@H](O)[C@@]3(C)C2C[C@@H]2OC4(CCC(C)CO4)C(C)[C@@H]23)[C@@]1(C)C6 (stereo partly specified)
GI50 [1]: > 100 µM (inactive)
GI50 [2]: > 100 µM (inactive)
GI50 [3]: > 100 µM (inactive)
GI50 [4]: > 100 µM (inactive)
GI50 [5]: > 100 µM (inactive)
GI50 [6]: > 100 µM (inactive)
GI50 [7]: > 100 µM (inactive)
GI50 [8]: > 100 µM (inactive)
GI50 [9]: > 100 µM (inactive)
GI50 [11]: > 100 µM (inactive)
GI50 [12]: > 100 µM (inactive)
GI50 [13]: > 100 µM (inactive)
GI50 [14]: > 100 µM (inactive)
GI50 [15]: > 100 µM (inactive)
GI50 [16]: > 100 µM (inactive)
GI50 [17]: > 100 µM (inactive)
GI50 [18]: > 100 µM (inactive)

O=c1[nH]c(Cc2ccccc2)nc2c1sc1nc3ccccc3n12
GI50 [1]: > 100 µM (inactive)
GI50 [2]: > 100 µM (inactive)
GI50 [3]: > 100 µM (inactive)
GI50 [5]: > 100 µM (inactive)
GI50 [6]: > 100 µM (inactive)
GI50 [7]: > 100 µM (inactive)
GI50 [8]: > 100 µM (inactive)
GI50 [9]: > 100 µM (inactive)
GI50 [10]: > 100 µM (inactive)
GI50 [11]: > 100 µM (inactive)
GI50 [12]: > 100 µM (inactive)
GI50 [13]: > 100 µM (inactive)
GI50 [14]: > 100 µM (inactive)
GI50 [15]: > 100 µM (inactive)
GI50 [16]: > 100 µM (inactive)
GI50 [17]: > 100 µM (inactive)
GI50 [18]: > 100 µM (inactive)
GI50 [19]: > 100 µM (inactive)

Cc1ccc(S(=O)(=O)NNC(=O)c2cc(C)ccc2NC(=O)C23CC4CC(CC(C4)C2)C3)cc1
GI50 [1]: 36.1 µM (inactive)
GI50 [2]: 43.8 µM (inactive)
GI50 [3]: 45.5 µM (inactive)
GI50 [4]: 29.3 µM (inactive)
GI50 [20]: 23.5 µM (inactive)
GI50 [5]: 61.9 µM (inactive)
GI50 [6]: > 100 µM (inactive)
GI50 [8]: > 100 µM (inactive)
GI50 [9]: 38.5 µM (inactive)
GI50 [10]: 46 µM (inactive)
GI50 [11]: > 100 µM (inactive)
GI50 [12]: 21.1 µM (inactive)
GI50 [13]: 45.7 µM (inactive)
GI50 [14]: 41.6 µM (inactive)
GI50 [15]: > 100 µM (inactive)
GI50 [16]: 60.7 µM (inactive)
GI50 [17]: 32.9 µM (inactive)
GI50 [18]: 27.6 µM (inactive)
GI50 [19]: 21.6 µM (inactive)

O=C1C2CC=CCC2C(=O)N1n1c(Cc2ccccc2)n[nH]c1=O (stereo unspecified)
GI50 [1]: > 100 µM (inactive)
GI50 [2]: > 100 µM (inactive)
GI50 [3]: > 100 µM (inactive)
GI50 [4]: > 100 µM (inactive)
GI50 [20]: > 100 µM (inactive)
GI50 [5]: > 100 µM (inactive)
GI50 [6]: > 100 µM (inactive)
GI50 [8]: > 100 µM (inactive)
GI50 [9]: > 100 µM (inactive)
GI50 [10]: > 100 µM (inactive)
GI50 [11]: > 100 µM (inactive)
GI50 [12]: > 100 µM (inactive)
GI50 [13]: > 100 µM (inactive)
GI50 [14]: > 100 µM (inactive)
GI50 [15]: > 100 µM (inactive)
GI50 [16]: > 100 µM (inactive)
GI50 [17]: > 100 µM (inactive)
GI50 [18]: > 100 µM (inactive)
GI50 [19]: > 100 µM (inactive)

Cc1cccc(-c2cc(O)c3c(C)ccnc3n2)c1
GI50 [1]: 1.17 µM (inactive)
GI50 [2]: 0.363 µM (active)
GI50 [3]: 0.346 µM (active)
GI50 [4]: 0.597 µM (active)
GI50 [5]: 0.0463 µM (active)
GI50 [6]: 0.71 µM (active)
GI50 [7]: 0.36 µM (active)
GI50 [8]: 1.19 µM (inactive)
GI50 [9]: 0.255 µM (active)
GI50 [10]: 0.39 µM (active)
GI50 [11]: 0.583 µM (active)
GI50 [12]: 0.601 µM (active)
GI50 [13]: 0.718 µM (active)
GI50 [14]: 0.745 µM (active)
GI50 [15]: 0.208 µM (active)
GI50 [16]: 0.495 µM (active)
GI50 [17]: 0.356 µM (active)
GI50 [18]: 0.407 µM (active)
